Earlier results as cited in patent US9717704B2, “Method of treating, delaying and/or preventing Alzheimer's Disease” (Smartfish AS, priority 2013, dated 2017).

Legend:
[1] = tested on: PBMCs / macrophages of AD patients; details: in vitro (Mizwicki et al. 2013)
[2] = tested on: amyloid-beta; details: cell lines (Marambaud, Zhao et al. 2005)

Compound | Abeta phagocytosis [1] | deregulation of inflammatory genes [1] | proteasome degradation of amyloid-beta [2]
C=C1/C(=C\C=C2/CCC[C@]3(C)[C@@H]([C@H](C)CCCC(C)(C)O)CC[C@@H]23)C[C@@H](O)C[C@@H]1O [1,25dihydroxyvitamin D3] | repair | repair the deregulation of these genes | –
Oc1ccc(/C=C/c2cc(O)cc(O)c2)cc1 [Resveratrol, 3,5,4′-trihydroxy-trans-stilbene] | – | – | promote proteasome degradation of amyloid-beta
CC/C=C\C[C@H](O)/C=C/C=C\C=C\C=C\[C@@H](O)[C@@H](O)C/C=C\CCC(=O)O [resolvin D1] | repair | repair the deregulation of these genes | –
